Residues, ends and D or L forms follow the SMILES beside them.
How the values were obtained:
[1] = Parenteral nutrition after 5-FU injury in rats: intestinal and hematological indices; assay type: in vivo; settings: all drug-treated animals, independent of diet
Protocol: Rats were catheterized as previously described and after a minimum of 3 hr following recovery from anesthesia, groups of animals received 100, 150 or 200 mg/kg of 5-FU by i.p. injection. […] The nutrition infusion, started 4 hr after 5-FU or saline, was continued for 4 d. at a rate of 46 ml/24 hr.
Blood and intestinal tissue were sampled and prepared for analysis as described in the examples above. The hemoglobin, white blood cell and platelet numbers were determined as measures of the general hematological toxicity of the various doses of 5-FU.
All analyses were performed as previously described in Examples 6 and 7. Statistical analyses were performed using two-way analysis of variance comparing both diets and dose of 5-FU. Unpaired t tests were used to compare two treatment groups at one dose of 5-FU. Differences were considered statistically significant at a p value of <0.05.

[2] = rat
Protocol: Lactulose is a non-metabolizable sugar that is poorly absorbed from the gastrointestinal tract. In gastrointestinal disorders such as inflammatory bowel disease, lactulose is taken up through gaps in the mucosal membrane, allowing its excretion in the urine. The amount of urinary lactulose is therefore a measure of "leakage" across the gut mucosal barrier (Menzies, Biochem. Soc. Trans. […]:1042-1047 (1974)).
Rats were treated with 5-fluorouracil as described in Example 8, above. Lactulose, 2 ml iso-osmolar solution of 100 mg/ml, was infused by gavage and urine was collected over the subsequent 24 hr and frozen. Urinary lactulose was determined enzymatically as described by Ziegler et al. (Arch. Surg. 123:1313-1319 (1988)).

[3] = Urinary excretion and nitrogen balance after laparotomy in dogs; assay type: in vivo, dog; settings: projected intake 0.312 gm N/24 hr/kg
Protocol: Urine excreted during the 24 hours of infusion was collected in the closed urinary collecting system and stored in acidified, refrigerated containers. Aliquots were stored frozen at -20° C. for batch analysis.
All solutions were infused at the rate of 4 ml/minute/kg. Five control animals received 0.9% saline. Amino acid solutions (Table V) containing BCCA's at three different concentrations (11%, 22%, or 44% of total amino acids) were prepared by adding amino acids to an 8.5% standard amino acid formula, FreAmine III (American McGaw, Irvine, Calif.). The total BCAA infusion rates were 0.46, 0.92, and 1.84 grams/24 hours/kg, respectively. All three amino acid solutions were isonitrogenous, providing approximately 0.624 grams of nitrogen/24 hours/kg, with a constant ratio of valine to leucine to isoleucine (1: 1.38:1.05). Nine animals received an 11% BCAA solution which was made by dissolving a mixture of non-essential amino acids (NEAA) in 2.13% FreAmine III to make a solution that provided 0.624 grams of nitrogen/24 hours/kg. […] Six animals received 4.25% FreAmine III alone (22% BCAA). The final seven animals received 2.13% FreAmine III supplemented with enough BCAA's to make a 44% solution. […] All solutions were sterilized by passage through a 0.22 uM filter (Millipore, Millis, Mass.) and stored overnight at 4° C. prior to administration. […]

[4] = intravenous feeding regimen; cited from earlier work

For `O=c1[nH]cc(F)c(=O)[nH]1` [5-FU, 5-fluorouracil], the “Circulating white blood cell and platelet counts” value [1] was “marked decline in the circulating white blood cell and platelet counts”, the “Gut permeability to lactulose” value [2] was “increase gut permeability to lactulose” and the “Time of peak increase in gut permeability” value [2] was “between 24 and 48”.
Work on `NC(=O)CC[C@H](N)C(=O)O` [Glutamine, glutamine] yielded a Nitrogen balance [3] of -0.386 ± 0.086 gm/24 hr/kg and a Nitrogen excretion [3] of 0.709 ± 0.085 gm/24 hr/kg.
For `C[C@H](N)C(=O)N[C@@H](CCC(N)=O)C(=O)O` [L-alanyl-L-glutamine] (H-Ala-Gln-OH), the Postoperative nitrogen balance [4] is given as “improve postoperative nitrogen balance”.

Reference: patent publication US5763485A, “Method of treating catabolic, gut-associated pathological processes and impaired host defenses” (Brigham and Women's Hospital, priority 1995, dated 1998)
